# Laboratory results published in patent US11517550B2 (priority 2008, dated 2022).
# System: Clostridium perfringens ATCC 13124
# Assay type: cell-based
# Settings: brain heart infusion broth, pH 6.0, 30° C., 0% oxygen
row,Substance,MIC values (%)
1,C8 lactylate,0.05%
2,C10 lactylate,0.04%
3,C12 lactylate,0.002%
4,C14 lactylate,0.001%
5,C16 lactylate,0.002%
6,C18:1 lactylate,0.02%
